Test results published in EP0462621A2, “Use of particular compounds for manufacture of pharmaceutical formulations for treatment against various parasites, mycoplasmas, other indications and other infections” (Prendergast, Patrick Thomas, priority 1990, dated 1991).

Legend:
L donovani = experiment: Leishmania mouse/hamster models, in-vivo; settings: Ld. Further: key: - no/poor activity,; + fair/moderate activity,; ++ good/excellent activity.
Source text: (§1) In-vitro and in-vivo models were used to test activities of a selection of many compounds. Those activities are summarized in Tables 1-3, showing variation between systems and species. Activities measured in the MP mo and HM mo models have shown the best correlation with results obtained in hamster and mouse models.

L major/L mexicana = experiment: Leishmania mouse/hamster models, in-vivo; settings: Lm. Further: key: - no/poor activity,; + fair/moderate activity,; ++ good/excellent activity.
Source text: as §1

T. cruzi = T. cruzi intracellular amastigote (AM) in-vitro screen; assay type: cell-based
Procedure: Dividing populations can be cultivated in muscle cells, fibroblasts and macrophages, following infection with trypomastigotes. After the initial infection, there is normally a period of 4-5 days during which the amastigotes divide before transforming, via the epimastigote stage, back to trypomastigotes which escape from the cell. Drug activity is measured during this 4-5 day period. A dividing host cell population, low infection rate, and the presence of trypomastigotes in the overlay can complicate the interpretation of results.
Intracellular amastigote models can use a range of muscle (skeletal and cardiac) and fibroblast (e.g. HeLa, HePa) cell lines, macrophages, and chick embryo cells. […] To overcome the problems of overgrowth of the monolayer and a low percentage of infected cells, often associated with the use of cell lines, irradiated rat L6 myoblasts are used.

B lymphocytes = experiment: Lymphocyte blastogenesis assay, B lymphocytes (PWM); assay type: cell-based, human
Procedure: T and B lymphocytes from normal human donors were incubated for 30 minutes at various dose levels of the compounds indicated. The lymphocytes were added in triplicate wells in gentamicin and phytohemagglutinin (PHA) (a T cell mitogen), pokeweed mitogen (PWM) (a B cell mitogen) and allogeneic mononuclear cells (mixed leukocyte cultures; MLC) or media containing the above additives. The lymphocyte blastogenesis assay is described in detail below.
The data are represented as the mean of the three replicates. The results are presented in Charts la(e) (i) and la(e) (ii) (Figs. 1 and 2). […] A reduction of both T lymphocytes' abilities to proliferate was obtained when 100 u.M or greater concentrations of IPA was added to the cell cultures. Proliferative activity of T lymphocytes by 25% at the 30 u.M concentration of IPA in the experiment.
• 1. Mononuclear cells are separated from whole blood by differential centrifugation using a synthetic separation medium, or are thawed from a cryopreserved preparation. The cells are washed and resuspended in media (RPMI - 1640, L-Glutamine 2mM, Herpes Buffer 25mM, Gentamicin 50 ug/ml, Human AB Serum-heat inactivated (56°, 30°) 20%). • 2. A viable cell count is determined. • 3. Cell concentration is adjusted to 2 x 10^6 /ml in media. • 4. The cell suspension is added to wells of a 96-well flat bottom plate in 0.1 ml aliquots (2 x 10^5 cells). • 5. The selected mitogens and/or antigens (in media without serum) are added to the cells in the wells also in 0.1 ml aliquots. • 6. The cultures are incubated for 3-7 days (depending upon the mitogen or antigen) at 37° C in a humidified 5% C02 atmosphere. • 7. Six to eight hours before termination of cultures 0.05 ml (1 µCi) of ^3HTdR sp. act 6.7 Ci/mM (20 µCi/ml stock) is added to each well. • 8. At termination of cultures the cells are harvested onto strips of scintillation-grade fibreglass paper using a multiple sample harvester. • 9. Perforated disks from the fibreglass paper of the harvested cultures are placed each into scintillation vials to which is then added 5 ml of toluene based scintillation cocktail. • 10. The vials are counted in a liquid scintillation counter for one minute where the amount of incorporated ^3HTdR is determined.
net CPM = xCPM of mitogen/antigen cultures - xCPM of media cultures.

81-66-45 Cells = experiment: Cytotoxicity on uninfected 81-66-45 cells, 10 days continuous exposure; assay type: cell-based; settings: read-out: ID50 - The concentration of IPA which kills 50% of the cells
Procedure: The "Percent Dead Cells" are taken from Tables la(d) (iii) and la(d) (v) using the 10-day value, and the therapeutic index have been calculated for each drug concentration. The results of IPA are also graphed in Figures 16 and 17. Cytotoxicity (the dashed line) is calculated as the percent live cells.
The availability of toxicity data collected in the same time frame as required for determination of antiviral effectiveness allowed determination of values for two different cell lines. Figures 16 and 17 illustrate the curves obtained by plotting the cytotoxicity of IPA (as a percent of the control cell viability) versus the percent of inhibition of HIV-1 replication (as a percent of the control titer) when H9 and 81-66-45 cells were tested. The cytotoxicity data obtained with 10 days continuous exposure, using uninfected cells, were used since 10 days was the length of time required to carry out the infectivity test. As is apparent from Tables la-(d) (ii) - la(d) (v), toxicity is much lower when the drug is added to cells for one day and then removed, or when cells are exposed for only 1 or 4 days. It is difficult to mimic in-vivo exposure times, particularly if metabolites are more toxic than the parent compound and are readily cleared in-vivo but not in-vitro.

[1] = Case study one: AIDS patient treated with IPA; assay type: in vivo, human; settings: IPA from February 1989
Procedure: A case study of an AIDS patient one, was conducted. Patient one began treatment with IPA in February 1989, while in a nearly moribund condition, suffering from depression, exhaustion, bronchial infection, severe diarrhoea, severe weight loss (weight in February was 98 lbs.), complete loss of appetite and spiked fever. […] By March 21, 1989, patient one stated that they felt cured and abruptly (unilaterally) stopped taking IPA, resulting in dramatic deterioration of their condition. In May, 1989, patient one resumed IPA therapy, and experienced dramatic recovery. At the end of May, 1989, patient one again stopped taking IPA, and their condition again deteriorated. Again IPA treatment was restarted, and patient one's condition improved. In early June, 1989, patient one again stopped IPA therapy and died several weeks later.
The study concluded that patient one would have apparently enjoyed appreciable therapeutic benefits from IPA if they had conscientiously and continuously received IPA medication.

Epstern-Barr Virus (EBV) = experiment: P3HR1 cells, EBV, immunofluorescence; assay type: cell-based; settings: P3HR1 cells in-vitro
Procedure: Experiments were carried out using concentrated P3HR1 […]. […] Infection of Raji cells by infectious EBV induces early antigens (EA) in the cells in proportion to the titer of infectious virus. EA was detected using a monoclonal antibody.
The assay was set up with Raji cells exposed for 2 hours to serial 10 fold dilutions of the P3HR1 virus. Excess virus was separated by centrifugation and removed. Aliquots of cells infected at each dilution were distributed into 12 well trays (0.5 ml/well), and 0.5 ml of medium containing twice the desired final medium concentration was added to each well.
At 24 and 72 hours, aliquots of each well were washed, added to Teflon® outlined wells on a glass slide, air dried to attach then to the glass, and then fixed with acetone-methanol (50:50). Standard immunofluorescence procedures were followed to quantify the percent of cells containing virus at each time, virus dilution and drug concentration.

HIV-I = experiment: Experiment la(a): macrophage cells, HIV-I, p24 antigen capture radio-immunoassay; assay type: cell-based; settings: Human immunodeficiency virus 1, Monocyte; Monocytes; HIV-1; as read from Figure 15

CC(C)=CCNc1ncnc2c1ncn2[C@@H]1O[C@H](CO)[C@@H](O)[C@H]1O [IPA, N^6-(Δ^2-isopentenyl) adenosine]
Activity, mouse/ hamster models (L donovani): +
Activity, mouse/ hamster models (L major/L mexicana): -
activity, intracellular AM (T. cruzi; T. cruzi strain Sonya): ++(Y,Sonya)
activity, intracellular AM (T. cruzi; T. cruzi strain Y): ++(Y,Sonya)
B lymphocyte responsiveness (B lymphocytes; 10 µM, third experiment): Increased
B lymphocyte function (B lymphocytes; 1000 µM down to 10 µM, third experiment (Figs. 7 and 8)): reductions
B lymphocyte proliferation (B lymphocytes; 0.1 - 10 µM, first experiment): No effect or an increase
reduction in B lymphocyte function (B lymphocytes; 30 -35 u.M, third experiment): ~25%
reduction of B lymphocyte proliferation (B lymphocytes; between the 30 -10 u.M concentration levels, second experiment, approximate): 30 -50%
CC50 (81-66-45 Cells): 40 µM
T and B lymphocyte competence [1]: major rapid recovery
levels of Epstern-Barr Virus (EBV) (Epstern-Barr Virus (EBV)): reduces
IC50 (HIV-I): 6 µM
IC90 (HIV-I): 10 µM
